The source of these data is patent US20130338221A1, “PHOTOAGING PROTECTIVE COMPOSITION CONTAINING CHROMENES DERIVED FROM SARGASSUM HORNERI” (PUKYONG NATIONAL UNIVERSITY INDUSTRY-UNIVERSITY C, priority 2012, published 2013).

Series [1] has as its system human dermal fibroblasts (HDF cells). As to the kind of experiment: Protective effect on viability of UV-A irradiated dermal fibroblasts (MTT assay). The class given is cell-based. In general terms: Tetrazolium assays rely on reduction of a dye to a coloured formazan, in cell work by metabolically active cells.
Protocol: HDF cells were seeded in 24-well plate at a density of 1×10^5 cells/well with DMEM containing 10% FBS, 2 mM gluramine and 100 μg/ml penicillin-streptomycin at 37° C. humidified atmosphere of 5% CO2. After incubation for 24 h, the cells were exposed to UV-A energy at the range of 6 J/cm^2 (365 nm UV-A light source, Bio-Sun lamp, Vilber Lourmat, Marine, France) in 200 μl of phosphate buffered saline (PBS) to each well. After UV-A irradiation, the cells were incubated for 24 h in serum-free DMEM.
Viability level of HDF cell was determined through ability of mitochondria capable of converting 3-(4,5-dimethylthiazol-2-yl)-2,5-diphenyl tetrazolium bromide (MTT) into a insoluble formazan product. Dermal fibroblasts were grown in 96-well plates at a density of 1×10^4 cells/well. After 24 h, after irradiating UV-A (6 J/cm^2) to the cell, the cells were cultured with the chromenes sample or without the chromenes sample at 37° C. humidified atmosphere of 5% CO2. The supernatant medium was removed, and the cells were incubated with 100 μl of MTT (1 mg/ml) for 4 h. The unconvertived MTT was removed, dimethyl sulfoxide (DMSO) was added, and then cell viability was measured at the absorbance at 540 nm using a microplate reader (Tecan Austria GmbH, Austria) to determine the amount of formazan in a cell. Relative cell viability was quantified as a percentage compared to the control group.
For series [2], the system named is intracellular reactive oxygen species (ROS) in HDF cells. The series is described as follows: Intracellular ROS generation by UV-A (DCFH-DA). The class given is cell-based, human.
Protocol: Intracellular formation of reactive oxygen species (ROS) was assessed using oxidation sensitive dye 2′,7′-dichlorofluorescin diacetate (DCFH-DA) as the substrate. HDF cells growing in fluorescence microtiter 96-well plates for 24 h were exposed to UV-A (6 J/cm^2). The exposed cells were loaded with 20 μM DCFH-DA dissolved in PBS and incubated for 30 min in the dark at 37° C. humidified atmosphere of 5% CO2. […] The formation of 2′,7′-dichlorofluorescein (DCF) dissolved in PBS due to oxidation of DCFH in the presence of various ROS was read after every 20 min at the excitation wavelength (Ex) of 485 nm and the emission wavelength (Em) of 535 nm using a fluorescence microplate reader (Tecan Austria GmbH, Salzburg, Austria).
The cell system was labeled with DCFH-DA and followed by UV-A irradiation.
Series [3] has as its system cell membrane proteins of HDF cells. The series is described as follows: Cell membrane protein oxidation (carbonyl groups, DNPH) after UV-A. In kind it is cell-based, human.
Protocol: The amount of carbonyl groups in cell membrane proteins was determined to assess the cellular protein oxidation level that is a standard of determining the degree of cell membrane damage. HDF cells were co-cultured with various concentrations of compounds for 24 h after 6 J/cm^2 of UV-A irradiation. Cell were washed three times with PBS and lysed in lysis buffer without reducing agents (25 mM Tris-HCl, pH 7.8, 2 mM EDTA, 180 mM NaCl and 1% Triton X-100). Aliquots of cell lysates were separately incubated then trichloroacetic acid (400 μl from 20% trichloroacetic acid) was added to each reaction mixture and solubilized proteins were precipitated by centrifugation at 3,000 rpm for 15 minutes. Precipitated protein was resuspended in 2% 2,4-dinitrophenylhydrazine (2 mM HCl) and incubated at room temperature for 20 min. The protein was precipitated again with 20% trichloroacetic acid and the pellet was washed three times with ethanol:ethylacetate (1:1 v/v) solution. The pellet was then dissolved in 6 M guanidin hydrochloride (500 μl) and incubated for 15 min at 37° C. After centrifugation at 1,500 g for 5 min, absorbance of the supernatant was recorded against a complementary blank at 370 nm using a GENios® fluorescence microplate reader (Tecan Austria GmbH, Salzburg, Austria).
In series [4] the test system is membrane lipid hydroperoxides of HDF cells. As to the kind of experiment: Cell membrane lipid peroxidation (DPPP) after UV-A. The class given is cell-based, human. The protocol:
Intracellular lipid hydroperoxide levels were determined by the fluorescence probe, diphenyl-1-pyrenylphosphine (DPPP). HDF cells were seeded into fluorescence microtiter 96-well plates at a density of […] using serum-free media. After 80% confluence, HDF cells were treated with various concentrations of compounds and incubated for 24 h after 6 J/cm^2 of UV-A irradiation. Then, cells were washed three times with PBS and labeled with 13 μM DPPP (dissolved in DMSO) for 24 h at 37° C. in the dark. DPPP oxide fluorescence intensity was measured after 24 h at the excitation wavelength (Ex) of 361 nm and the emission wavelength (Em) of 380 nm using a GENios® fluorescence microplate reader (Tecan Austria GmbH, Salzburg, Austria).
The levels of lipid hydroperoxides in the presence and absence of chromenes were examined by using specific fluorescence probe, DPPP (FIG. 16). DPPP has been used as a sensitive method for measuring lipid hydroperoxides of cell membranes, since it successfully incorporates into membranes and oxidizes hydroperoxides to emit DPPP-oxide fluorescence.

The test system of series [5] is intracellular glutathione (GSH) in HDF cells. As to the kind of experiment: Intracellular GSH level (mBBr) after UV-A. The class given is cell-based, human. How it is done: Intracellular glutathione (GSH) level in intact cells was determined using monobromobimane as a thiol-staining reagent. HDF cells were seeded into fluorescence microtiter 96-well plates at a density of 5×10^3 cells/well. Cell were washed three times with PBS and treated with various concentrations of the compounds after 6 J/cm^2 of UV-A irradiation and incubated for 30 min. 0.04 mM of Monobromobimane was added to cells and staining was carried out for 24 h at 37° C. in the dark. After staining fluorescence intensity was measured (excitation and emission: 360 and 465 nm) using a GENios® fluorescence microplate reader (Tecan Austria GmbH, Salzburg, Austria).
GSH is the most abundant low molecular weight thiol inside mammalian cells, and changes in glutathione level directly reflect intracellular redox alterations. To investigate the relationship between the increased ROS and the level of antioxidant materials in cells, the intracellular GSH level was measured.

Series [6] has as its system TNF-α. The series is described as follows: TNF-α secretion ELISA in UV-A irradiated HDF. The class given is cell-based, human. The protocol: (§1) For measuring various collagen degradation MMP and inflammatory cytokine, collagen content in a cell, an enzyme-linked immunosorbent assay was used after UV-A irradiation. After irradiating HDF cell with UV-A, the cells were incubated with various concentrations of sample. After 24 h, the supernatants of the HDF cells were collected, and used for testing MMP, cytokine, hyaluronan, and collagen. For testing, Biotrak™ ELISA kits (Amersham Pharmacia Biosciences, England, UK), procollagen ELISA kit (Takara Bio Inc), and Hyaluronan ELISA kits (R&D system) were used according to the manufacturer's instructions.
(§2) To investigate effect of chromenes on the cytokine production in UV-A irradiated dermal fibroblasts, inflammatory cytokine production was measured using ELISA assay (FIGS. 18 to 20).
A general note: ELISA stands for enzyme-linked immunosorbent assay.

For a further series, the system named is IL-1β. As to the kind of experiment: IL-1β secretion ELISA in UV-A irradiated HDF. The class given is cell-based, human. How it is done: as §1, §2
In a further series the test system is IL-6. The series is described as follows: IL-6 secretion ELISA in UV-A irradiated HDF. The class given is cell-based, human. How it is done: as §1, §2
The subject of the next series is hyaluronan. The series is described as follows: Hyaluronan secretion ELISA in UV-A irradiated fibroblasts. In kind it is cell-based, human. The protocol:
as §1
Then, we evaluated effect of chromenes on hyaluronan secretion by UV-A irradiation.

In a further series the test system is MMP-1. The series is described as follows: MMP-1 secretion ELISA in UV-A irradiated HDF. In kind it is cell-based, human. How it is done:
as §1
(§3) Collagens are known to as main component of the skin and degraded by collagenase MMPs. Among MMPs, MMP-1, MMP-8 and MMP-13 are family of collagenases which are capable of degrading triple-helical fibrillar collagens. […] Therefore, inhibitory effect of chromenes on collagenase MMP secretions from the UV-A irradiated dermal fibroblasts was determined using ELISA assay.

For a further series, the system named is MMP-13. As to the kind of experiment: MMP-13 secretion ELISA in UV-A irradiated HDF. The class given is cell-based, human. The protocol:
as §1, §3

A further series relates to type I procollagen. As to the kind of experiment: Type I procollagen ELISA in UV-A irradiated HDF. The class given is cell-based, human. How it is done: as §1
Alterations of collagen have been thought to be a cause of the clinical skin changes of photoaging. The dermis contains predominantly type I collagen (85-90%) and the precursor molecules of collagen are called procollagen, which is synthesized in the form of polypeptide chains of type I collagen in dermal fibroblasts. UV irradiation induces the activity and synthesis of MMP in human skin, which mediate collagen destruction that results in much connective tissue damage. Therefore, we also studied the effects of chromenes on the level of type I procollagen in UVA-irradiated cultured dermal fibroblasts. The procollagen level was determined in the culture medium by ELISA assay.

Another series has as its system HDF cells. The series is described as follows: Phototoxicity determination (MTT, compounds present during UV-A). The class given is cell-based, human. As to conditions: retinoic acid 5 μM during UV-A. How it is done:
HDF cells are exposed to UV-A light in the presence of chromenes and retinoic acid in concentrations of 5, 10, and 20 μM and 1, 2, and 5 μM, respectively. After 24 h, cell viability was determined by MTT assay.
In order to determine whether compounds have phototoxic effect, the cell viability of dermal fibroblasts was evaluated using MTT assay. Cells were co cultured with compounds and retinoic acid during UV-A irradiation. […] Therefore, the concentration of 1 μM retinoic acid was selected as a positive control for further experiment.

Series [7] relates to TNF-α. The series is described as follows: TNF-α mRNA and protein expression (RT-PCR, Western blot) in UV-A irradiated HDF. The class given is cell-based, human. How it is done:
Total cellular RNA was isolated using Trizol reagent (Invitrogen Co., CA, USA). The 2 μg of isolated RNA was reverse transcribed into cDNA using oligo-(dT) primer (Promega, Madison, Wis., USA). Target cDNA was amplified using the forward and reverse primer sequences. The amplification was carried out at 95° C. for 45 sec, 60° C. for 50 sec and 72° C. for 60 sec for cycles. After amplification step, extension process proceeded consecutively at 72° C. for 5 min. […] Gels were stained with 1 mg/ml of EtBr and photographed by UV illumination using AlphaEase® gel image analysis software (Alpha Innotech., San Leandro, Calif., USA).
Whole cells were lysed in RIPA buffer (Sigma-Aldrich Corp., St. Louis, USA). After centrifugation, total protein amount of cell lysates was determined using Lowry method (BioRad Laboratories, Hercules, Calif., USA). […] All primary monoclonal antibodies were diluted with TBS-T at 1:1000 ratio. Bound antibodies were detected by horseradish peroxidase-conjugated secondary antibodies for 1 h at room temperature and the immunoreactive proteins were detected using a chemiluminescent ECL assay kit (Amersham Pharmacia Biosciences, England, UK) according to the manufacturer's instructions. Western blot bands were visualized using a LAS3000® Luminescent image analyzer (Fujifilm Life Science, Tokyo, Japan).
On the technique in general: A western blot detects proteins with antibodies after separation by electrophoresis.

The next series has as its system fibronectin. The series is described as follows: Immunofluorescent labeling of fibronectin after UV-A. As to conditions: 10 μM. The class given is cell-based, human. The protocol: (§4) Immunostaining is used to determine the subcellular distribution and organization of proteins. Cells were grown in 6-well plates, Aspirate liquid, then cover cells to a depth of 2-3 mm with 4% formaldehyde in PBS for 15 min at room temperature. Aspirate fixative, rinse three times in PBS for 5 minutes each then incubated primary antibody and for overnight at 4° C. Rinse three times in PBS for 5 min each. Incubate specimen in fluorochrome-conjugated secondary antibody diluted in Antibody Dilution Buffer for 1-2 h at room temperature in dark and incubated with Hoechest 33342 (Sigma-Aldrich Co. MO, USA). For best results, examine specimens immediately using appropriate excitation wavelength. For long-term storage, store slides flat at 4° C. protected from light. The image of HDF cells were collected using Leica invented microscopy (DM IRB) with 40× objective and a digital CCD camera (CTR 6000, Leica, Wetzlar, Germany) under fluorescence.
(§5) It has been reported that the exposure to UV-A causes degradation of collagen and fibronectin in the extracellular matrix. […] Results were evaluated through the images of the labeling assay under a fluorescent microscope with the previously mentioned excitation and emission values.

A further series concerns hyaluronan synthase 1. As to the kind of experiment: Immunofluorescent labeling of hyaluronan synthase 1 after UV-A. As to conditions: 10 μM. In kind it is cell-based, human. The protocol: as §4, §5
Where [8] appears, read: Homo sapiens, HDF, retinoic acid 1 μM.
The mark [9] stands for this setting: Homo sapiens, retinoic acid 1 μM.
Setting [10] is: A and B 5 to 20 μM, C 1 to 10 μM.

Usually inhibition stands for how much of the control response was suppressed. Low values mean little suppression, high ones strong suppression. Take `CC1=C(/C=C/C(C)=C/C=C/C(C)=C/C(=O)O)C(C)(C)CCC1` [Retinoic acid, retinoic acid, reference compound]: in [1] (retinoic acid 1 μM), the “Fibroblasts protection (%)” value is reported as 12.21%. In addition, in series [2] (retinoic acid 1 μM), the “ROS scavenging (%)” value turned out to be 46.60%. Besides, the inhibition at 1 µM stood at 55.4% in series [3] (setting [8]); 21.6% in series [4] (setting [8]); 24.4% with TNF-α [6] (setting [9]); 6.71% in the series on IL-1β (setting [9]); 14.1% with IL-6 (setting [9]); 30.7% with MMP-1 (setting [9]). In the series on MMP-13 (setting [9]), this molecule yielded an inhibition at 1 µM of 37.1%. Besides, in series [5] (retinoic acid 1 μM), the “Enhancement of GSH level (%)” value was determined as 15.85%. Also, the “IL-6 level after treatment” value with IL-6 (at the same concentration (1 μM), UV-A irradiated HDF) came to 119 pg/mL. Moreover, the “Hyaluronan (%)” value in the series with hyaluronan (retinoic acid 1 μM) turned out to be 31.11%. The “Type I procollagen secretion level” value with type I procollagen (1 μM, culture medium, UV-A irradiated HDF) was 60 ng/mL. In addition, in the series with type I procollagen (retinoic acid 1 μM), the “Procollagen (%)” value was determined as 57.89%. Further, in the series with HDF cells, the Phototoxicity result is recorded as “a little phototoxic effect”.

`CC(C)=CCC/C(=C/CC/C(C)=C/CC[C@]1(C)CCc2cc(O)cc(C)c2O1)C(=O)O` [Compound A, sargachromenol]: in series [1] (samples 10 μM), the “Fibroblasts protection (%)” value was determined as 37.25%. In addition, the “ROS scavenging (%)” value in [2] (samples 10 μM) was found to be 38.58%. Further, the “Inhibition of protein oxidation (%)” value in series [3] (samples 10 μM) is listed as 30.57%. In addition, the “Inhibition of lipid peroxidation (%)” value in series [4] (samples 10 μM) worked out at 15.63%. In addition, in [5] (samples 10 μM), the “Enhancement of GSH level (%)” value is 23.17%. In the series on TNF-α [6] (setting [10]), the “TNF-α secretion (in words)” value is listed as “slightly reduced”. Moreover, the “Inhibition of TNF-α secretion (%)” value in the series with TNF-α [6] (samples 10 μM) was determined as 20.59%. Further, the “IL-1β secretion (in words)” value in the series with IL-1β (setting [10]) was “slightly reduced”. The “Inhibition of IL-1β secretion (%)” value with IL-1β (samples 10 μM) was 10.07%. Besides, the “IL-6 secretion (in words)” value with IL-6 (setting [10]) was “slightly reduced”. In addition, the “Inhibition of IL-6 secretion (%)” value in the series with IL-6 (samples 10 μM) is reported as 11.11%. Moreover, the “Hyaluronan (%)” value in the series with hyaluronan (samples 10 μM) worked out at 16.67%. Further, in the series with MMP-1 (dose-dependent), the “MMP-1 secretion (in words)” value is listed as “significantly reduced”. The “MMP-1 inhibition (%)” value in the series on MMP-1 (samples 10 μM) turned out to be 27.76%. Besides, the “MMP-13 secretion (in words)” value in the series with MMP-13 (dose-dependent) is “significantly reduced”. Besides, the “MMP-13 inhibition (%)” value with MMP-13 (samples 10 μM) was 23.82%. For the same molecule, the “Procollagen (%)” value in the series with type I procollagen (samples 10 μM) came out at 115.79%. Moreover, the “Inhibition of TNF-α expression” value with TNF-α [7] is reported as “failed to show significant activity”. Besides, the “Protection of fibronectin decomposition” value in the series on fibronectin is on record as “not as significant as compound C”. The “Hyaluronan synthase 1 amount” value in the series with hyaluronan synthase 1 was “reduced”.
